Several values for one entry are separate records, joined by “and”; a condition that tells them apart may be missing. Equal values may be shown once. Inconclusive results and toxic doses are left out.
Tested on: CD2F1 mice, L1210 leukemia ip, survival T/C
Test: NCI In Vivo Anticancer Drug Screen. Data for tumor model L1210 Leukemia (intraperitoneal) in CD2F1 (CDF1) mice
Conditions: endpoint: mean survival time, higher = longer survival
How it was run: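 Ratio T/C, where T is the treated-group value and C the vehicle-dosed control value, from mice implanted with a transplantable tumor.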

[1] = dose: 200.0 mg/kg/injection, schedule: Q04DX003 (ip), vehicle: saline

Nc1nncs1
T/C (dose: 1.0 mg/kg/injection, schedule: Q01DX005 (ip), vehicle: water): 94 % of control
T/C (dose: 2.0 mg/kg/injection, schedule: Q01DX005 (ip), vehicle: water): 96 % of control
T/C (dose: 4.0 mg/kg/injection, schedule: Q01DX005 (ip), vehicle: water): 96 % of control
T/C (dose: 8.0 mg/kg/injection, schedule: Q01DX005 (ip), vehicle: water): 98 % of control
T/C (dose: 8.0 mg/kg/injection, schedule: Q03HX008 (ip), vehicle: alkali diluted with saline): 123 % of control
T/C (dose: 8.0 mg/kg/injection, schedule: Q03HX016 (ip), vehicle: alkali diluted with saline): 116 % of control
T/C (dose: 8.0 mg/kg/injection, schedule: Q03HX024 (ip), vehicle: alkali diluted with saline): 152 % of control
T/C (dose: 8.0 mg/kg/injection, schedule: Q03HX024 (ip), vehicle: saline): 153 % of control
T/C (dose: 16.0 mg/kg/injection, schedule: Q01DX005 (ip), vehicle: water): 108 % of control
T/C (dose: 16.0 mg/kg/injection, schedule: Q01DX005 (iv), vehicle: alkali diluted with saline): 110 % of control
T/C (dose: 16.0 mg/kg/injection, schedule: Q01DX009 (oral), vehicle: other): 108 % of control
T/C (dose: 16.0 mg/kg/injection, schedule: Q03HX024 (ip), vehicle: alkali diluted with saline): 194 % of control
T/C (dose: 23.4 mg/kg/injection, schedule: Q04DX003 (ip), vehicle: water): 103 % of control
T/C (dose: 32.0 mg/kg/injection, schedule: Q01DX001 (iv), vehicle: alkali diluted with saline): 107 % of control
T/C (dose: 32.0 mg/kg/injection, schedule: Q01DX009 (ip), vehicle: other): 123 % of control
T/C (dose: 32.0 mg/kg/injection, schedule: Q01DX009 (ip), vehicle: saline with Tween-80): 120 % of control
T/C (dose: 32.0 mg/kg/injection, schedule: Q01DX009 (oral), vehicle: other): 107 % of control
T/C (dose: 32.0 mg/kg/injection, schedule: Q03HX008 (ip), vehicle: saline): 120 % of control
T/C (dose: 32.0 mg/kg/injection, schedule: Q03HX024 (ip), vehicle: saline): 104 % of control
T/C (dose: 32.0 mg/kg/injection, schedule: Q04DX003 (ip), vehicle: alkali diluted with saline): 111 % of control
T/C (dose: 32.0 mg/kg/injection, schedule: Q04DX003 (ip), vehicle: other): 106 % of control
T/C (dose: 39.0 mg/kg/injection, schedule: Q04DX003 (ip), vehicle: water): 117 % of control and 105 % of control
T/C (dose: 50.0 mg/kg/injection, schedule: Q04DX003 (ip), vehicle: water): 106 % of control
T/C (dose: 62.5 mg/kg/injection, schedule: Q04DX003 (ip), vehicle: water): 103 % of control and 107 % of control
T/C (dose: 64.0 mg/kg/injection, schedule: Q01DX001 (ip), vehicle: alkali diluted with saline): 112 % of control
T/C (dose: 64.0 mg/kg/injection, schedule: Q01DX001 (ip), vehicle: other): 109 % of control
T/C (dose: 64.0 mg/kg/injection, schedule: Q01DX001 (iv), vehicle: alkali diluted with saline): 112 % of control
T/C (dose: 64.0 mg/kg/injection, schedule: Q01DX001 (oral), vehicle: alkali diluted with saline): 111 % of control
T/C (dose: 64.0 mg/kg/injection, schedule: Q01DX001 (oral), vehicle: other): 94 % of control
T/C (dose: 64.0 mg/kg/injection, schedule: Q01DX001 (sc), vehicle: alkali diluted with saline): 115 % of control
T/C (dose: 64.0 mg/kg/injection, schedule: Q01DX009 (ip), vehicle: other): 103 % of control
T/C (dose: 64.0 mg/kg/injection, schedule: Q01DX009 (ip), vehicle: saline with Tween-80): 104 % of control and 107 % of control
T/C (dose: 64.0 mg/kg/injection, schedule: Q01DX009 (ip), vehicle: saline): 109 % of control
T/C (dose: 64.0 mg/kg/injection, schedule: Q01DX009 (oral), vehicle: other): 86 % of control
T/C (dose: 64.0 mg/kg/injection, schedule: Q03HX024 (ip), vehicle: alkali diluted with saline): 97 % of control
T/C (dose: 64.0 mg/kg/injection, schedule: Q04DX003 (ip), vehicle: other): 123 % of control
T/C (dose: 64.0 mg/kg/injection, schedule: Q08DX002 (ip), vehicle: alkali diluted with saline): 114 % of control
T/C (dose: 64.0 mg/kg/injection, schedule: Q08DX002 (ip), vehicle: other): 105 % of control
T/C (dose: 65.0 mg/kg/injection, schedule: Q04DX003 (ip), vehicle: water): 123 % of control
T/C (dose: 100.0 mg/kg/injection, schedule: Q04DX003 (ip), vehicle: water): 119 % of control
T/C (dose: 125.0 mg/kg/injection, schedule: Q04DX003 (ip), vehicle: water): 119 % of control
T/C (dose: 128.0 mg/kg/injection, schedule: Q01DX001 (ip), vehicle: other): 119 % of control
T/C (dose: 128.0 mg/kg/injection, schedule: Q01DX001 (iv), vehicle: alkali diluted with saline): 119 % of control
T/C (dose: 128.0 mg/kg/injection, schedule: Q01DX001 (oral), vehicle: other): 104 % of control
T/C (dose: 128.0 mg/kg/injection, schedule: Q01DX001 (sc), vehicle: alkali diluted with saline): 120 % of control
T/C (dose: 128.0 mg/kg/injection, schedule: Q01DX009 (sc), vehicle: alkali diluted with saline): 96 % of control
T/C (dose: 128.0 mg/kg/injection, schedule: Q08DX002 (ip), vehicle: alkali diluted with saline): 124 % of control
T/C (dose: 128.0 mg/kg/injection, schedule: Q08DX002 (ip), vehicle: other): 116 % of control
T/C (dose: 180.0 mg/kg/injection, schedule: Q04DX003 (ip), vehicle: water): 159 % of control
T/C (dose: 200.0 mg/kg/injection, schedule: Q04DX003 (ip), vehicle: water): 124 % of control
T/C (dose: 250.0 mg/kg/injection, schedule: Q04DX003 (ip), vehicle: water): 156 % of control
T/C (dose: 256.0 mg/kg/injection, schedule: Q01DX001 (ip), vehicle: other): 118 % of control
T/C (dose: 256.0 mg/kg/injection, schedule: Q01DX001 (oral), vehicle: other): 108 % of control
T/C (dose: 256.0 mg/kg/injection, schedule: Q01DX005 (iv), vehicle: alkali diluted with saline): 150 % of control
T/C (dose: 256.0 mg/kg/injection, schedule: Q01DX009 (ip), vehicle: alkali diluted with saline): 87 % of control
T/C (dose: 256.0 mg/kg/injection, schedule: Q04DX003 (ip), vehicle: alkali diluted with saline): 163 % of control
T/C (dose: 256.0 mg/kg/injection, schedule: Q04DX003 (ip), vehicle: other): 157 % of control
T/C (dose: 300.0 mg/kg/injection, schedule: Q04DX003 (ip), vehicle: water): 161 % of control and 176 % of control
T/C (dose: 512.0 mg/kg/injection, schedule: Q01DX001 (oral), vehicle: other): 111 % of control
T/C (dose: 512.0 mg/kg/injection, schedule: Q04DX003 (ip), vehicle: alkali diluted with saline): 182 % of control
T/C (dose: 512.0 mg/kg/injection, schedule: Q04DX003 (ip), vehicle: other): 168 % of control
T/C (dose: 512.0 mg/kg/injection, schedule: Q08DX002 (ip), vehicle: alkali diluted with saline): 151 % of control
T/C (dose: 833.0 mg/kg/injection, schedule: Q04DX003 (ip), vehicle: water): 182 % of control
T/C (dose: 1024.0 mg/kg/injection, schedule: Q01DX001 (ip), vehicle: other): 122 % of control
T/C (dose: 1024.0 mg/kg/injection, schedule: Q01DX001 (oral), vehicle: alkali diluted with saline): 117 % of control
T/C (dose: 1024.0 mg/kg/injection, schedule: Q01DX001 (oral), vehicle: other): 109 % of control
T/C (dose: 1024.0 mg/kg/injection, schedule: Q08DX002 (ip), vehicle: alkali diluted with saline): 160 % of control

CC(O)C(C)(C)CO (stereo not drawn)
T/C (dose: 100.0 mg/kg/injection, schedule: Q04DX003 (ip), vehicle: saline): 88 % of control
T/C [1]: 88 % of control
T/C (dose: 400.0 mg/kg/injection, schedule: Q04DX003 (ip), vehicle: saline): 93 % of control

OCCN1CCN(CCCN2c3ccccc3Sc3ccc(Cl)cc32)CC1
T/C (dose: 6.25 mg/kg/injection, schedule: Q01DX009 (ip), vehicle: Klucel (hydroxypropylcellulose) (HPC)): 93 % of control
T/C (dose: 6.25 mg/kg/injection, schedule: Q04DX002 (ip), vehicle: Klucel (hydroxypropylcellulose) (HPC)): 96 % of control
T/C (dose: 12.5 mg/kg/injection, schedule: Q01DX009 (ip), vehicle: Klucel (hydroxypropylcellulose) (HPC)): 96 % of control
T/C (dose: 12.5 mg/kg/injection, schedule: Q04DX002 (ip), vehicle: Klucel (hydroxypropylcellulose) (HPC)): 91 % of control
T/C (dose: 25.0 mg/kg/injection, schedule: Q01DX009 (ip), vehicle: Klucel (hydroxypropylcellulose) (HPC)): 116 % of control
T/C (dose: 25.0 mg/kg/injection, schedule: Q04DX003 (ip), vehicle: saline): 108 % of control and 110 % of control
T/C (dose: 25.0 mg/kg/injection, schedule: Q04DX009 (ip), vehicle: Klucel (hydroxypropylcellulose) (HPC)): 113 % of control
T/C (dose: 50.0 mg/kg/injection, schedule: Q04DX003 (ip), vehicle: saline): 110 % of control
T/C [1]: 116 % of control

C=C(C(=O)OC)N1C(=O)CC(C)C1=O (stereo not drawn)
T/C (dose: 12.5 mg/kg/injection, schedule: Q04DX002 (ip), vehicle: saline with Tween-80): 97 % of control
T/C (dose: 25.0 mg/kg/injection, schedule: Q04DX002 (ip), vehicle: saline with Tween-80): 108 % of control
T/C (dose: 50.0 mg/kg/injection, schedule: Q04DX002 (ip), vehicle: saline with Tween-80): 90 % of control
T/C (dose: 100.0 mg/kg/injection, schedule: Q04DX002 (ip), vehicle: saline with Tween-80): 86 % of control
